The values below come from patent US9029373B2, “Kinase inhibitors” (Chiesi Farmaceutici S.p.A., priority 2011, dated 2015).

One assay concerns the target T1, p38alpha (Homo sapiens, UniProt Q16539).
T1 construct: purchased Invitrogen PV3304
The assay can be described thus: P38alpha enzyme inhibition assay (Alphascreen kinase activity assay). Particulars: 100 pM p38alpha, 250 μM ATP, 2 hours pre-incubation at 25° C., ATF-2 fusion protein substrate; read-out: p38α inhibition (IC50 values). Format: biochemical. How it is done: P38alpha Enzyme Inhibition Assay.
The inhibitory activity of compounds was determined using an Alphascreen® (Perkin Elmer) based kinase activity assay. Kinase reactions consisted of 25 mM HEPES pH 7.5, 10 mM MgCl2, 100 μM Na3VO4, 2 mM DTT, 0.05 mg/ml Tween 20, 100 pM p38alpha (Invitrogen, PV3304), 1% DMSO and 0.3 μg/ml ATF-2 fusion protein (New England Biolabs, 9224). Compounds were incubated under these conditions for 2 hours, at 25° C., prior to the initiation of the kinase activity by the addition of the 250 μM ATP. Reaction volumes were 20 uL. After 1 hr at 25° C. reactions were stopped by the adding 10 uL of 25 mM HEPES pH 7.5 containing 62.5 mM EDTA, 0.05% Triton X-100, 10% BSA and 0.83 ng/uL anti-phospho-ATF2 antibody (Abeam, ab28812). Detection was performed by measuring luminescence following the addition of Alphascreen Donor beads (Perkin Elmer 6765300) and Protein A Alphascreen Acceptor beads (Perkin Elmer 6760137), both at a final concentration of 20 ug/ml. IC50 values were determined from concentration-response curves.

The subject of assay [1] is LPS-stimulated PBMC TNFα release. The assay can be described thus: LPS-stimulated PBMC TNFα release assay. Particulars: human PBMCs, LPS 10 ng/ml, 18 h, TNFα by ELISA, at least three separate experiments, read-out: p38α inhibition (IC50 values), inhibition of TNFα release. The format is cell-based. How it is done: LPS-Stimulated PBMC TNFα Release Assay.
Peripheral Blood Mononuclear Cells (PBMCs) were isolated from healthy human volunteer blood using a standard density gradient centrifugation technique. Citrated blood was placed onto Histopaque™ and centrifuged. The PBMCs were removed from the density gradient interface and washed in phosphate buffered saline (PBS). The PBMCs were suspended in RPMI 1640 medium (without serum), dispensed into a 96-well plate and incubated at 37° C. for 3 h in a humidified incubator. After incubation, the medium was replaced (with medium containing 1% foetal bovine serum), and the plate incubated at 37° C., for 1 h, in the presence of test compound or the appropriate vehicle. LPS (10 ng/ml), or an appropriate vehicle control, was then added to the cells, and the plate returned to the incubator for 18 h. Cell-free supernatants were removed and assayed for TNFα levels using an ELISA kit from R&D Systems.
A dose response curve to each test compound was performed and the effect of compound in each experiment was expressed as a percentage inhibition of the control TNFα release. Dose response curves were plotted and compound potency (IC50) was determined. Compounds were tested in at least three separate experiments.
(An ELISA detects its analyte on a solid surface through an enzyme-linked reagent.)

For orientation: pIC50 means the negative decadic logarithm of the IC50, by convention in mol/L.

pIC50: −log10 of the molar value. Structures can show the parent of a compound that is named as a salt.

T1 sequence (Q16539 whole entry): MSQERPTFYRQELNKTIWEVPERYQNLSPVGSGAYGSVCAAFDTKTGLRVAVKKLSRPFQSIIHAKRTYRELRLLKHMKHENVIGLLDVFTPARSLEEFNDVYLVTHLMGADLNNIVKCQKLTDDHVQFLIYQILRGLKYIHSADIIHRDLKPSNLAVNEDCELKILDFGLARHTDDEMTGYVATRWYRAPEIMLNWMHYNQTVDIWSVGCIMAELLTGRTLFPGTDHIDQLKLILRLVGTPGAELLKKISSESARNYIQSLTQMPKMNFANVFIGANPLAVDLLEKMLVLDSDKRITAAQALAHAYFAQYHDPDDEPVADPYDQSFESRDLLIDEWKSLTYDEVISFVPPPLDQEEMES

Regarding `COc1ccc(-n2nc(C(C)(C)C)cc2NC(=O)N[C@H]2CC[C@@H](Oc3ccc4nnc(C(C)C)n4c3)c3ccccc32)cc1` [Example 1, 1-(5-tert-Butyl-2-(4-methoxy-phenyl)-2H-pyrazol-3-yl)-3-[(1S,4R)-4-(3-isopropyl-[1,2,4]triazolo[4,3-a]pyridin-6-yloxy)-1,2,3,4-tetrahydro-naphthalen-1-yl]-urea], the pIC50 (at p38alpha; in assay [1]) was greater than 8.00 throughout.

As for `CC(C)c1nnc2ccc(O[C@@H]3CC[C@H](NC(=O)Nc4cc(C(C)(C)C)nn4C)c4ccccc43)cn12` [Example 2, 1-(5-tert-Butyl-2-methyl-2H-pyrazol-3-yl)-3-[(1S,4R)-4-(3-isopropyl-[1,2,4]triazolo[4,3-a]pyridin-6-yloxy)-1,2,3,4-tetrahydro-naphthalen-1-yl]-urea], the pIC50 (on p38alpha; in assay [1]) was greater than 8.00 each time.

On to `CC(C)c1nnc2ccc(O[C@@H]3CC[C@H](NC(=O)Nc4cc(C(C)(C)C)nn4-c4cccc(SCCO)c4)c4ccccc43)cn12` [Example 3, 1-{5-tert-Butyl-2-[3-(2-hydroxyethylsulfanyl)-phenyl]-2H-pyrazol-3-yl}-3-[(1S,4R)-4-(3-isopropyl-[1,2,4]triazolo[4,3-a]pyridin-6-yloxy)-1,2,3,4-tetrahydro-naphthalen-1-yl]-urea], for which the pIC50 (on p38alpha; in assay [1]) was greater than 8.00 throughout.

As to `CC(C)c1nnc2ccc(O[C@@H]3CC[C@H](NC(=O)Nc4cc(C(C)(C)C)nn4-c4cccc(OCCO)c4)c4ccccc43)cn12` [Example 4, 1-{5-tert-Butyl-2-[3-(2-hydroxy-ethoxy)-phenyl]-2H-pyrazol-3-yl}-3-[(1S,4R)-4-(3-isopropyl-[1,2,4]triazolo[4,3-a]pyridin-6-yloxy)-1,2,3,4-tetrahydro-naphthalen-1-yl]-urea], the negative logarithm of the IC50 (pIC50) (on p38alpha; in assay [1]) was greater than 8.00 each time.

As to `CC(C)c1nnc2ccc(O[C@H]3CC[C@H](NC(=O)Nc4nnc(C(C)(C)C)o4)c4ccccc43)cn12` [Example 5, 1-(5-tert-Butyl-[1,3,4]oxadiazol-2-yl)-3-[(1S,4S)-4-(3-isopropyl-[1,2,4]triazolo[4,3-a]pyridin-6-yloxy)-1,2,3,4-tetrahydro-naphthalen-1-yl]-urea], the figures for the pIC50 (at p38alpha; in assay [1]) were greater than 8.00 and 7.00 to 8.00, respectively.

For `Cc1ccc(-n2cc(NC(=O)N[C@H]3CC[C@H](Oc4ccc5nnc(C(C)C)n5c4)c4ccccc43)cn2)cc1` [Example 6, 1-[(1S,4S)-4-(3-Isopropyl-[1,2,4]triazolo[4,3-a]pyridin-6-yloxy)-1,2,3,4-tetrahydro-naphthalen-1-yl]-3-(1-p-tolyl-1H-pyrazol-4-yl)-urea], the negative-log IC50 (pIC50) on p38alpha was 6.30 to 7.00.

For `CC(C)c1nnc2ccc(O[C@H]3CC[C@H](NC(=O)Nc4ccc(Cl)c(C(F)(F)F)c4)c4ccccc43)cn12` [Example 7, 1-(4-Chloro-3-trifluoromethyl-phenyl)-3-[(1S,4S)-4-(3-isopropyl-[1,2,4]triazolo[4,3-a]pyridin-6-yloxy)-1,2,3,4-tetrahydro-naphthalen-1-yl]-urea], the pIC50 (on p38alpha; in assay [1]) was greater than 8.00 in each case.

For the compound `CC(C)c1nnc2ccc(O[C@H]3CC[C@H](NC(=O)Nc4nc(C(C)(C)C)no4)c4ccccc43)cn12` [Example 8, 1-(3-tert-Butyl-[1,2,4]oxadiazol-5-yl)-3-[(1S,4S)-4-(3-isopropyl-[1,2,4]triazolo[4,3-a]pyridin-6-yloxy)-1,2,3,4-tetrahydro-naphthalen-1-yl]-urea], the pIC50 (at p38alpha; in assay [1]) was greater than 8.00 throughout.

As to `CC(C)c1nnc2ccc(O[C@H]3CC[C@H](NC(=O)Nc4cnn(C(C)(C)C)c4)c4ccccc43)cn12` [Example 9, 1-(1-tert-Butyl-1H-pyrazol-4-yl)-3-[(1S,4S)-4-(3-isopropyl-[1,2,4]triazolo[4,3-a]pyridin-6-yloxy)-1,2,3,4-tetrahydro-naphthalen-1-yl]-urea], the pIC50 (on p38alpha; in assay [1]) was greater than 8.00 throughout.

Regarding `CC(C)c1nnc2ccc(O[C@@H]3CC[C@H](NC(=O)Nc4cc(C(C)(C)C)nn4CCO)c4ccccc43)cn12` [Example 10, 1-[5-tert-Butyl-2-(2-hydroxy-ethyl)-2H-pyrazol-3-yl]-3-[(1S,4R)-4-(3-isopropyl-[1,2,4]triazolo[4,3-a]pyridin-6-yloxy)-1,2,3,4-tetrahydro-naphthalen-1-yl]-urea], in assay [1], the negative-log IC50 (pIC50) is 7.00 to 8.00.

Take `CC(C)c1nnc2ccc(O[C@@H]3CC[C@H](NC(=O)Nc4cc(C(C)(C)C)nn4-c4ccc(CO)cc4)c4ccccc43)cn12` [Example 11, 1-[5-tert-Butyl-2-(4-hydroxymethyl-phenyl)-2H-pyrazol-3-yl]-3-[(1S,4R)-4-(3-isopropyl-[1,2,4]triazolo[4,3-a]pyridin-6-yloxy)-1,2,3,4-tetrahydro-naphthalen-1-yl]-urea]: the pIC50 (on p38alpha; in assay [1]) was greater than 8.00 each time.

As for `CC(C)c1nnc2ccc(O[C@@H]3CC[C@H](NC(=O)Nc4cc(C(C)(C)C)nn4-c4ccc(OCCN5CCN(C)CC5)cc4)c4ccccc43)cn12` [Example 13, 1-(5-tert-Butyl-2-{4-[2-(4-methyl-piperazin-1-yl)-ethoxy]-phenyl}-2H-pyrazol-3-yl)-3-[(1S,4R)-4-(3-isopropyl-[1,2,4]triazolo[4,3-a]pyridin-6-yloxy)-1,2,3,4-tetrahydro-naphthalen-1-yl]-urea, formic acid salt], in assay [1], the pIC50 is 6.00 to 7.00.

`CC(C)c1nnc2ccc(O[C@@H]3CC[C@H](NC(=O)Nc4cc(C(C)(C)C)nn4C4CCNCC4)c4ccccc43)cn12` [Example 16, 1-(5-tert-Butyl-2-piperidin-4-yl-2H-pyrazol-3-yl)-3-[(1S,4R)-4-(3-isopropyl-[1,2,4]triazolo[4,3-a]pyridin-6-yloxy)-1,2,3,4-tetrahydro-naphthalen-1-yl]-urea]: on p38alpha, the pIC50 is greater than 8.00.

Turning to `Cc1ccc(-n2nccc2NC(=O)N[C@H]2CC[C@@H](Oc3ccc4nnc(C(C)C)n4c3)c3ccccc32)cc1` [Example 20, 1-[(1S,4R)-4-(3-Isopropyl-[1,2,4]triazolo[4,3-a]pyridin-6-yloxy)-1,2,3,4-tetrahydro-naphthalen-1-yl]-3-(2-p-tolyl-2H-pyrazol-3-yl)-urea], the pIC50 at p38alpha is 6.30 to 7.00.

On to `CC(C)c1nnc2ccc(O[C@@H]3CC[C@H](NC(=O)Nc4cnn(C(C)(C)C)c4)c4cc(F)ccc43)cn12` [Example 21, 1-(1-tert-Butyl-1H-pyrazol-4-yl)-3-[(1S,4R)-7-fluoro-4-(3-isopropyl-[1,2,4]triazolo[4,3-a]pyridin-6-yloxy)-1,2,3,4-tetrahydro-naphthalen-1-yl]-urea], for which, on p38alpha, the pIC50 is greater than 8.00.

As for `CC(C)c1nnc2ccc(O[C@@H]3CC[C@H](NC(=O)Nc4cc(C(C)(C)C)nn4-c4ccc5cnn(CCN6CCOCC6)c5c4)c4ccccc43)cn12` [Example 24, 1-{5-tert-Butyl-2-[1-(2-morpholin-4-yl-ethyl)-1H-indazol-6-yl]-2H-pyrazol-3-yl}-3-[(1S,4R)-4-(3-isopropyl-[1,2,4]triazolo[4,3-a]pyridin-6-yloxy)-1,2,3,4-tetrahydro-naphthalen-1-yl]-urea], the pIC50 at p38alpha was greater than 8.00.

Turning to `CC(C)c1nnc2ccc(O[C@@H]3CC[C@H](NC(=O)Nc4cc(C(C)(C)C)nn4-c4ccc5cn(CCN6CCOCC6)nc5c4)c4ccccc43)cn12` [Example 25, 1-{5-tert-Butyl-2-[2-(2-morpholin-4-yl-ethyl)-2H-indazol-6-yl]-2H-pyrazol-3-yl}-3-[(1S,4R)-4-(3-isopropyl-[1,2,4]triazolo[4,3-a]pyridin-6-yloxy)-1,2,3,4-tetrahydro-naphthalen-1-yl]-urea], on p38alpha, the negative logarithm of the IC50 (pIC50) is greater than 8.00.
